The results in this text go back to PubChem BioAssay (NCI).

“And” between values parts separate entries of the source, which are not always exact repeats. Identical values can stand only once.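 96-well plates; 48 h exposure; 5 concentrations. Endpoints by linear interpolation between flanking doses. Not reached: highest tested concentration assigned. GI50 is the concentration that inhibits growth by half. TGI marks complete inhibition of growth.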

Test systems include A498 renal; CCRF-CEM leukemia; IGROV1 ovarian; MALME-3M melanoma; NCI-H23 lung; NCI/ADR-RES ovarian; SK-MEL-28 melanoma; SNB-19 CNS; TK-10 renal; U251 CNS.
What all share (assay): NCI anticancer screen, dose series, 48 h

On to `Cc1cc(N(CCCl)CCCl)ccc1C=Nc1ccc2ccccc2c1`, for which the GI50 with A498 renal was 0.226 µM; in the assay with CCRF-CEM leukemia, 4.85 µM; in the assay with IGROV1 ovarian, 28.5 µM; with MALME-3M melanoma, 50.3 µM; with NCI-H23 lung, 6.12 µM; in the assay with NCI/ADR-RES ovarian, 9.62 µM. The GI50 in the assay with SK-MEL-28 melanoma is greater than 100 µM; in the assay on SNB-19 CNS it was 51.2 µM; in the assay with TK-10 renal, 24.5 µM; in the assay with U251 CNS, 9.98 µM. For the same molecule, the TGI in the assay with A498 renal is 1.13 µM; in the assay with CCRF-CEM leukemia, greater than 100 µM; in the assay on IGROV1 ovarian, greater than 100 µM; in the assay with MALME-3M melanoma, greater than 100 µM; in the assay with NCI-H23 lung, greater than 100 µM; in the assay with NCI/ADR-RES ovarian, greater than 100 µM. Moreover, the TGI in the assay on SK-MEL-28 melanoma, in the assay with SNB-19 CNS, in the assay with TK-10 renal and with U251 CNS was greater than 100 µM throughout.
As for `CCCCCCCCCCCCCCCCC(=O)O.CCCCCCCCCCCCCCCCCC(=O)O.CCCCCCCCCCCCCCCCCC(=O)O.CCCCCCCCCCCCCCCCCC(=O)O.CCCCCCCCCCCCCCCCCC(=O)O.CO[CH-]OC12COC1CC(O)C1(C)C(O)C(OC(C)O)C3=C(C)C(OC(=O)C(O)C([NH-])c4ccccc4)CC(O)(C(OC(=O)c4ccccc4)C21)C3(C)C.[Cu+].[Zn].[Zn].[Zn].[Zn].[Zn]` (stereo unspecified), the GI50 with A498 renal was less than 0.0025 µM; with CCRF-CEM leukemia it was 0.0095 µM; in the assay on IGROV1 ovarian, 0.00711 µM; with MALME-3M melanoma it was 0.00947 µM; in the assay with NCI-H23 lung, 0.0115 µM; with NCI/ADR-RES ovarian, 2.31 µM. The GI50 in the assay with SK-MEL-28 melanoma is 4.68 µM; with SNB-19 CNS it was 0.0105 µM; in the assay with TK-10 renal, 0.258 µM; with U251 CNS, 0.00851 µM. In addition, the TGI with A498 renal is 0.0187 µM; with CCRF-CEM leukemia it was greater than 17.7 µM; in the assay on IGROV1 ovarian, 4.39 µM; in the assay on MALME-3M melanoma it was 6.91 µM; in the assay on NCI-H23 lung, greater than 14.5 µM; in the assay on NCI/ADR-RES ovarian it was 24.6 µM. The TGI in the assay on SK-MEL-28 melanoma was 23.7 µM; with SNB-19 CNS it was greater than 11.5 µM; in the assay on TK-10 renal it was greater than 25 µM; in the assay with U251 CNS it was 4.09 µM.
`CC1(C)[C@@H](OC(=O)CCC(=O)O)CC[C@]2(C)[C@H]3C(=O)C=C4[C@@H]5C[C@@](C)(C(=O)O)CC[C@]5(C)CC[C@@]4(C)[C@]3(C)CC[C@@H]12`: the GI50 in the assay on A498 renal was 49.2 µM; with CCRF-CEM leukemia, 52.4 µM; with IGROV1 ovarian it was 55.8 µM; with MALME-3M melanoma, 90.8 µM; in the assay on NCI-H23 lung, 60.1 µM; in the assay with NCI/ADR-RES ovarian, 81.2 µM. Further, the GI50 is 57.5 µM in the assay with SK-MEL-28 melanoma, 55 µM with SNB-19 CNS, 65.6 µM with TK-10 renal and 53.2 µM with U251 CNS. The TGI amounted to 68 µM in the assay with A498 renal; 78.3 µM in the assay with CCRF-CEM leukemia; 100 µM with IGROV1 ovarian; 128 µM with MALME-3M melanoma; 115 µM with NCI-H23 lung; 146 µM with NCI/ADR-RES ovarian. The TGI in the assay on SK-MEL-28 melanoma was 85.4 µM; in the assay on SNB-19 CNS it was 141 µM; with TK-10 renal, 124 µM; with U251 CNS, 77.4 µM.
On to `O=c1ssc(Cl)c1Cl`, for which the TGI is greater than 10 µM in the assay with A498 renal; 5.25 µM in the assay with CCRF-CEM leukemia; greater than 10 µM with IGROV1 ovarian; 9.77 µM in the assay with MALME-3M melanoma; greater than 10 µM in the assay with NCI-H23 lung; greater than 10 µM with NCI/ADR-RES ovarian. Besides, the TGI with SK-MEL-28 melanoma, in the assay on SNB-19 CNS, in the assay with TK-10 renal and with U251 CNS was greater than 10 µM throughout.
In the case of `COc1ccc(/C=C/C(=O)c2ccc(OC)c(OC)c2)cc1O`, the GI50 with A498 renal is 4.84 µM; in the assay on CCRF-CEM leukemia, 3.51 µM; in the assay on IGROV1 ovarian, 7.03 µM; in the assay with MALME-3M melanoma it was 15.8 µM; in the assay with NCI-H23 lung, 9.91 µM; in the assay with NCI/ADR-RES ovarian it was 3.88 µM. Further, the GI50 is 12.9 µM in the assay with SK-MEL-28 melanoma, 6.42 µM in the assay on SNB-19 CNS, 11.4 µM in the assay with TK-10 renal and 3.59 µM in the assay with U251 CNS. In addition, the TGI was 20.3 µM with A498 renal; 23.9 µM in the assay with CCRF-CEM leukemia; 39.9 µM in the assay on IGROV1 ovarian; 31.7 µM in the assay with MALME-3M melanoma; 30.4 µM with NCI-H23 lung; 49.1 µM in the assay on NCI/ADR-RES ovarian. Besides, the TGI in the assay on SK-MEL-28 melanoma was 27.4 µM; with SNB-19 CNS, 20.8 µM; with TK-10 renal, 30.4 µM; in the assay with U251 CNS it was 14.6 µM.
Consider `O=C1c2ccccc2-c2c1c1ccccc1c(=O)n2CCCNCCCCNCCCN1C(=O)c2ccccc2C2C(=O)c3ccccc3C21` (stereo unspecified), for which the GI50 in the assay on A498 renal is 0.628 µM; in the assay on CCRF-CEM leukemia, 0.0291 µM; in the assay with IGROV1 ovarian, 0.988 µM; in the assay on MALME-3M melanoma it was 5.27 µM; in the assay on NCI-H23 lung, 0.319 µM; in the assay with NCI/ADR-RES ovarian it was 0.859 µM. Further, the GI50 in the assay with SK-MEL-28 melanoma is 1.19 µM; in the assay with SNB-19 CNS, 0.57 µM; in the assay on TK-10 renal, 0.614 µM; with U251 CNS, 0.0756 µM. Moreover, the TGI with A498 renal was determined as 2.21 µM; with CCRF-CEM leukemia, 0.766 µM; with IGROV1 ovarian, 10.7 µM; in the assay on MALME-3M melanoma it was 35 µM; in the assay with NCI-H23 lung, 0.999 µM; with NCI/ADR-RES ovarian, 2.63 µM. In addition, the TGI amounted to 6.76 µM with SK-MEL-28 melanoma, 1.93 µM in the assay with SNB-19 CNS, 1.45 µM in the assay with TK-10 renal and 0.767 µM with U251 CNS.
With `COc1ccc(C2C(C)C(=O)C(C)C(c3ccc(OC)cc3)N2N=O)cc1` (stereo unspecified), the TGI in the assay on A498 renal is > 40.9 µM and 424 µM; in the assay with CCRF-CEM leukemia it was greater than 1000 µM; in the assay with IGROV1 ovarian it was 391 µM and 656 µM; in the assay with MALME-3M melanoma, greater than 700 µM; with NCI-H23 lung, > 750 µM and 713 µM; in the assay on NCI/ADR-RES ovarian it was greater than 1000 µM. Also, the TGI in the assay with SK-MEL-28 melanoma is greater than 1000 µM; in the assay on SNB-19 CNS it was 750 µM and > 873 µM; with TK-10 renal, 488 µM and 245 µM; in the assay with U251 CNS, 750 µM and 428 µM. The GI50 is > 90.8 µM and 138 µM with IGROV1 ovarian; greater than 750 µM in the assay with NCI-H23 lung; greater than 750 µM in the assay with SK-MEL-28 melanoma; > 71 µM and 73.1 µM in the assay with SNB-19 CNS; 147 µM in the assay on TK-10 renal; 35 µM and 85.9 µM in the assay with U251 CNS.
For the molecule `COc1ccc(-n2ccnc2-c2cc(OC)c(OC)c(OC)c2)cc1`, the GI50 is 0.798 µM with A498 renal; 2.99 µM in the assay with CCRF-CEM leukemia; 2.42 µM in the assay on IGROV1 ovarian; 0.747 µM in the assay on MALME-3M melanoma; 3.3 µM in the assay with NCI-H23 lung; 1.85 µM with NCI/ADR-RES ovarian. Also, the GI50 in the assay on SK-MEL-28 melanoma is 2.99 µM; with SNB-19 CNS it was 4.64 µM; with TK-10 renal it was 4.19 µM; in the assay with U251 CNS it was 3.98 µM. Also, the TGI is 5.14 µM in the assay on A498 renal; greater than 100 µM in the assay with CCRF-CEM leukemia; greater than 100 µM in the assay with IGROV1 ovarian; greater than 100 µM in the assay on MALME-3M melanoma; 65 µM in the assay with NCI-H23 lung; 7.82 µM in the assay on NCI/ADR-RES ovarian. Besides, the TGI is greater than 100 µM in the assay with SK-MEL-28 melanoma, greater than 100 µM in the assay on SNB-19 CNS, 85 µM in the assay with TK-10 renal and greater than 100 µM with U251 CNS.
